# Assay results from EPA's ToxRefDB 2.
# Experiments:
# rat [1] = conditions: Subchronic oral toxicity in rodents, other, Feed, dose end: 13 week, group: systemic
# rat [2] = conditions: Combined chronic toxicity/carcinogenicity, sprague dawley, Oral, Feed, dose end: 2 year, group: systemic
# dog = conditions: Combined chronic toxicity/carcinogenicity, beagle, Oral, Feed, dose end: 24 month, group: systemic
# rat [3] = conditions: Multigenerational reproductive toxicity study, Sprague Dawley, Oral, Feed, dose end: 2 generation
# rat [4] = conditions: Prenatal developmental toxicity study, sprague dawley, Oral, Gavage/Intubation, dose end: 15 GD, group: maternal
# mouse [5] = conditions: Subchronic oral toxicity in rodents, b6c3f1, Water, dose end: 13 week, group: systemic
# rat [6] = conditions: Multigenerational reproductive toxicity study, sprague dawley, Oral, Gavage/Intubation, dose end: 2 generation, group: parental
# rat [7] = conditions: Prenatal developmental toxicity study, sprague dawley, Oral, Gavage/Intubation, dose end: 15 GD, group: maternal; remark: listed apart in the source
# rabbit [8] = conditions: Prenatal developmental toxicity study, new zealand white, Oral, Gavage/Intubation, dose end: 18 GD, group: maternal
# rat [9] = conditions: Subchronic oral toxicity in rodents, fischer, Water, dose end: 13 week, group: systemic
# rat [10] = conditions: Sub-acute repeat dose toxicity, fischer, Oral, Water, dose end: 14 day, group: systemic
# mouse [11] = conditions: Combined chronic toxicity/carcinogenicity; cd1; Inhalation; Whole-Body; dose end: 18 month; group: systemic; systemic / pathology microscopic / nose / [other] + systemic / pathology microscopic / nose / degeneration + systemic / pathology …
# rat [12] = conditions: Combined chronic toxicity/carcinogenicity; fischer; Inhalation; Whole-Body; dose end: 26 month; group: systemic; systemic / pathology microscopic / spleen / congestion + systemic / pathology microscopic / eye / degeneration + systemic / pathology …
# mouse [13] = conditions: Sub-acute repeat dose toxicity, b6c3f1, Oral, Water, dose end: 14 day, group: systemic
# rat [14] = conditions: Neurotoxicity screening battery; sprague dawley; Oral; Gavage/Intubation; dose end: 13 week; group: cannot be grouped; systemic / hematology / [other] / [other] + systemic / hematology / heinz body / heinz body + systemic / hematology / leukocyte (wbc) count …
# rabbit [15] = conditions: Prenatal developmental toxicity study, new zealand white, Oral, Gavage/Intubation, dose end: 18 GD, group: maternal; remark: listed apart in the source
# rat [16] = conditions: Carcinogenicity, fischer, Oral, Feed, dose end: 104 week, group: systemic
# mouse [17] = conditions: Carcinogenicity, b6c3f1, Oral, Feed, dose end: 104 week, group: systemic
# mouse [18] = conditions: Carcinogenicity; b6c3f1; Oral; Feed; dose end: 80 week; group: systemic; systemic / pathology microscopic / liver / carcinoma + systemic / pathology microscopic / liver / neoplastic nodule + systemic / in life …
# rat [19] = conditions: Carcinogenicity, fischer, Oral, Feed, dose end: 80 week, group: systemic
# rat [20] = conditions: Subchronic inhalation toxicity, fischer, Whole-Body, dose end: 13 week, group: systemic
# rat [21] = conditions: Prenatal developmental toxicity study, sprague dawley, Inhalation, Whole-Body, dose end: 15 GD, group: maternal
# rabbit [22] = conditions: Prenatal developmental toxicity study, new zealand white, Inhalation, Whole-Body, dose end: 18 GD, group: maternal
# [23] = systemic / in life observation / body weight / body weight gain
# [24] = systemic / hematology / erythrocyte (rbc) count differential / erythrocyte (rbc) + systemic / hematology / hematocrit (hct) / hematocrit (…
# [25] = systemic / pathology microscopic / kidney / cellular alteration + systemic / pathology microscopic / kidney / pigmentation
# [26] = systemic / pathology microscopic / kidney / cellular alteration + systemic / pathology microscopic / kidney / pigmentation + systemic / …
# [27] = group: offspring, systemic / in life observation / body weight / offspring (pup) weight + developmental / offspring survival late / [other] / [other] + …
# [28] = group: parental, systemic / in life observation / body weight / body weight + systemic / organ weight / adrenal gland / absolute
# [29] = systemic / hematology / methemoglobin / methemoglobin + systemic / hematology / reticulocyte / reticulocyte
# [30] = systemic / hematology / methemoglobin / methemoglobin + systemic / hematology / reticulocyte / reticulocyte + systemic / in life observation…
# [31] = systemic / pathology microscopic / nose / degeneration + systemic / pathology microscopic / spleen / hematopoietic cell proliferation + …
# [32] = systemic / pathology microscopic / liver / hematopoietic cell proliferation + systemic / pathology microscopic / liver / hemosiderosis + …
# [33] = systemic / in life observation / body weight / body weight + systemic / in life observation / body weight / body weight gain + systemic / in…
# [34] = systemic / pathology gross / spleen / enlarged
# [35] = reproductive / reproductive performance / aborted / aborted + reproductive / reproductive performance / resorptions / resorptions + systemic…
# [36] = systemic / hematology / erythrocyte (rbc) count differential / erythrocyte (rbc) + systemic / hematology / hemoglobin (hgb) / hemoglobin (…
# [37] = systemic / in life observation / body weight / body weight
# [38] = systemic / in life observation / body weight / body weight + systemic / in life observation / water consumption / water consumption + …
# [39] = systemic / in life observation / body weight / body weight + systemic / in life observation / water consumption / water consumption
# [40] = systemic / in life observation / body weight / body weight + systemic / pathology microscopic / urinary bladder / hyperplasia
# [41] = systemic / in life observation / body weight / body weight + systemic / pathology microscopic / urinary bladder / hyperplasia + systemic / …
# [42] = systemic / in life observation / body weight / body weight + systemic / pathology microscopic / liver / hepatocellular carcinoma + systemic…
# [43] = systemic / in life observation / body weight / body weight + systemic / pathology microscopic / thyroid gland / hyperplasia
# [44] = systemic / in life observation / body weight / body weight + systemic / pathology microscopic / thyroid gland / hyperplasia + systemic / in …
# [45] = systemic / organ weight / adrenal gland / absolute + systemic / organ weight / adrenal gland / relative to body weight + systemic / organ …
# [46] = systemic / in life observation / body weight / body weight gain + systemic / in life observation / clinical signs / red or crusty deposits …
# [47] = systemic / in life observation / food consumption / food consumption
# [48] = systemic / in life observation / body weight / body weight gain + systemic / in life observation / clinical signs / oral discharge + …
compound,measurement,setting,value
CNC(=O)ON=C(C)SC [Methomyl],NEL,rat [1]; [23],2.5 mg/kg/day
same,NOAEL,rat [1]; [23],2.5 mg/kg/day
same,LOAEL,rat [1]; systemic / in life observation / body weight / body weight gain + systemic / pathology microscopic / bone marrow / hyperplasia,12.5 mg/kg/day
same,LEL,rat [1]; systemic / in life observation / body weight / body weight gain + systemic / pathology microscopic / bone marrow / hyperplasia + systemic / …,12.5 mg/kg/day
same,NEL,rat [2]; [24],5 mg/kg/day
same,LOAEL,rat [2]; [23],20 mg/kg/day
same,NOAEL,rat [2]; [23],5 mg/kg/day
same,LEL,rat [2]; systemic / in life observation / body weight / body weight gain + systemic / hematology / erythrocyte (rbc) count differential / erythrocyte…,20 mg/kg/day
same,LEL,dog; [25],10 mg/kg/day
same,LOAEL,dog; [25],10 mg/kg/day
same,NEL,dog; [26],2.5 mg/kg/day
same,NOAEL,dog; [26],2.5 mg/kg/day
same,LOAEL,"rat [3]; group: offspring, systemic / in life observation / body weight / offspring (pup) weight + developmental / offspring survival late / [other] / [other]",56.5 mg/kg/day
same,LEL,rat [3]; [27],6.9 mg/kg/day
same,NEL,rat [3]; [27],< 6.9 mg/kg/day
same,NOAEL,"rat [3]; group: offspring, systemic / in life observation / body weight / offspring (pup) weight + developmental / offspring survival late / lactation index / …",6.9 mg/kg/day
same,LOAEL,"rat [3]; group: parental, systemic / in life observation / body weight / body weight + systemic / in life observation / food consumption / food consumption",36.9 mg/kg/day
same,NOAEL,"rat [3]; group: parental, systemic / in life observation / body weight / body weight + systemic / in life observation / food consumption / food consumption + systemic…",4.6 mg/kg/day
same,LEL,rat [3]; [28],6.9 mg/kg/day
same,NEL,rat [3]; [28],< 6.9 mg/kg/day
CCC(C)=NO [2-Butanone oxime],LEL,rat [4]; [29],25 mg/kg/day
same,NEL,rat [4]; [29],< 25 mg/kg/day
same,LOAEL,rat [4]; [30],> 400 mg/kg/day
same,NOAEL,rat [4]; [30],≥ 400 mg/kg/day
same,LOAEL,mouse [5]; systemic / pathology microscopic / nose / degeneration + systemic / pathology microscopic / spleen / hematopoietic cell proliferation,755 mg/kg/day
same,NEL,mouse [5]; [31],110 mg/kg/day
same,NOAEL,mouse [5]; [31],515 mg/kg/day
same,LEL,mouse [5]; systemic / pathology microscopic / urinary bladder / hyperplasia,200 mg/kg/day
same,LOAEL,rat [6]; [24],> 200 mg/kg/day
same,NOAEL,rat [6]; [24],≥ 200 mg/kg/day
same,LEL,rat [6]; [32],10 mg/kg/day
same,NEL,rat [6]; [32],< 10 mg/kg/day
same,LOAEL,rat [7]; [33],> 600 mg/kg/day
same,NOAEL,rat [7]; [33],≥ 600 mg/kg/day
same,LEL,rat [7]; [34],60 mg/kg/day
same,NEL,rat [7]; [34],< 60 mg/kg/day
same,LOAEL,rabbit [8]; [35],> 40 mg/kg/day
same,NEL,rabbit [8]; [35],14 mg/kg/day
same,NOAEL,rabbit [8]; [35],≥ 40 mg/kg/day
same,LEL,rabbit [8]; systemic / in life observation / body weight / body weight gain + systemic / in life observation / food consumption / food consumption,24 mg/kg/day
same,LOAEL,rat [9]; [24],50 mg/kg/day
same,NOAEL,rat [9]; [24],25 mg/kg/day
same,LEL,rat [9]; [36],25 mg/kg/day
same,NEL,rat [9]; [36],< 25 mg/kg/day
same,LOAEL,rat [10]; [37],280 mg/kg/day
same,NEL,rat [10]; [38],70 mg/kg/day
same,NOAEL,rat [10]; [38],130 mg/kg/day
same,LEL,rat [10]; systemic / in life observation / water consumption / water consumption + systemic / organ weight / spleen / absolute + systemic / organ …,130 mg/kg/day
same,LEL,mouse [11],15 ppm
same,LOAEL,mouse [11],> 375 ppm
same,NEL,mouse [11],< 15 ppm
same,NOAEL,mouse [11],≥ 375 ppm
same,LEL,rat [12],15 ppm
same,LOAEL,rat [12],> 375 ppm
same,NEL,rat [12],< 15 ppm
same,NOAEL,rat [12],≥ 375 ppm
same,LOAEL,mouse [13]; [37],475 mg/kg/day
same,LEL,mouse [13]; [39],475 mg/kg/day
same,NEL,mouse [13]; [39],300 mg/kg/day
same,NOAEL,mouse [13]; [39],300 mg/kg/day
same,LEL,rat [14],40 mg/kg/day
same,LOAEL,rat [14],> 400 mg/kg/day
same,NEL,rat [14],< 40 mg/kg/day
same,NOAEL,rat [14],≥ 400 mg/kg/day
same,LOAEL,rabbit [15]; [35],> 80 mg/kg/day
same,NOAEL,rabbit [15]; [35],≥ 80 mg/kg/day
same,LEL,rabbit [15]; [29],10 mg/kg/day
same,NEL,rabbit [15]; [29],< 10 mg/kg/day
COc1ccc(C)cc1N [2-Methoxy-5-methylaniline],LOAEL,rat [16]; [40],250 mg/kg/day
same,NOAEL,rat [16]; [40],< 250 mg/kg/day
same,LEL,rat [16]; [41],250 mg/kg/day
same,NEL,rat [16]; [41],< 250 mg/kg/day
same,LOAEL,mouse [17]; [37],330 mg/kg/day
same,NOAEL,mouse [17]; [37],< 330 mg/kg/day
same,LEL,mouse [17]; [42],330 mg/kg/day
same,NEL,mouse [17]; [42],< 330 mg/kg/day
COP(=O)(OC)O/C(=C/Cl)c1cc(Cl)c(Cl)cc1Cl [Tetrachlorovinphos],LEL,mouse [18],1200 mg/kg/day
same,LOAEL,mouse [18],> 2400 mg/kg/day
same,NEL,mouse [18],< 1200 mg/kg/day
same,NOAEL,mouse [18],≥ 2400 mg/kg/day
same,LOAEL,rat [19]; [43],212 mg/kg/day
same,NOAEL,rat [19]; [43],< 212 mg/kg/day
same,LEL,rat [19]; [44],212 mg/kg/day
same,NEL,rat [19]; [44],< 212 mg/kg/day
CC(C)c1ccccc1 [Cumene],NEL,rat [20]; systemic / in life observation / clinical signs / body temperature + systemic / in life observation / clinical signs / motor activity,100 ppm
same,LEL,rat [20]; systemic / in life observation / clinical signs / motor activity + systemic / clinical chemistry / glucose / glucose + systemic / hematology…,500 ppm
same,LOAEL,rat [20]; [45],> 1200 ppm
same,NOAEL,rat [20]; [45],≥ 1200 ppm
same,LOAEL,rat [21]; [46],> 1200 ppm
same,NEL,rat [21]; [46],100 ppm
same,NOAEL,rat [21]; [46],≥ 1200 ppm
same,LEL,rat [21]; [47],500 ppm
same,LOAEL,rabbit [22]; [48],> 2300 ppm
same,NOAEL,rabbit [22]; [48],≥ 2300 ppm
same,LEL,rabbit [22]; [47],500 ppm
same,NEL,rabbit [22]; [47],< 500 ppm
